Data from patent publication US20180259530A1, “Method and kit for testing chronic myelogenous leukemia (CML), method for isolating TKI-resistant CML cells, and agent for reducing TKI-resistance of CML and method for screening the same” (The University of Tokyo, priority 2017, published 2018).

Columns and labels:
Type in all cases: cell-based, human
CD34+ADAM8+ cells = experiment: Cell viability assay with GM6001, CD34+ADAM8+ cells; details: GM6001 2.5 μM; FIG. 20
Procedure: (§1) The cell viability assay and apoptosis assay were carried out according to the method described in Ma, L. et al., Sci. Transl. Med. 6, 252ral21(2014).
(§2) CD34+ADAM8+ cells and CD34+ADAM8− cells were used for a cell viability assay in the absence of GM6001 (Merck Millipore) and in the presence of GM6001 at specific concentrations (2.5 μM, 5 μM, 20 μM). […] GM6001 was confirmed to have no effect on the cell viability of either CD34+ADAM8+ cells or CD34+ADAM8− cells, at a concentration of 2.5 μM.

CD34+ADAM8- cells = experiment: Cell viability assay with GM6001, CD34+ADAM8- cells; details: GM6001 2.5 μM; FIG. 20
Procedure: as §1, §2

[1] = tested on: CD34+ADAM8+ cells (CML-CP9- and CML-CP23-derived); experiment: Cell viability assay with imatinib plus GM6001; details: 1.0 μM imatinib and 2.5 μM GM6001 vs 1.0 μM imatinib alone; FIG. 21, 22
Procedure: as §1

[2] = tested on: CD34+ADAM8+ CML cells of CML-CP patient; experiment: Apoptosis assay of CD34+ADAM8+ and CD34+ADAM8- cell fractions with imatinib; details: 48 hours exposure to imatinib; FIG. 12
Procedure: as §1

CML-pre-HPCs = experiment: Apoptosis assay in hematopoietic differentiation of CML-iPSCs; details: 5 μM imatinib, 48 hours from medium exchange; FIG. 5
[3] = tested on: CD34+ADAM8+ CML cells of CML-CP patient; experiment: Cell viability assay of CD34+ADAM8+ and CD34+ADAM8- cell fractions with imatinib; details: 48 hours exposure to imatinib; FIG. 11
Procedure: as §1

[4] = tested on: mRNA transcribed from the ADAM8 gene in HL60AML cell line; experiment: ADAM8 gene expression inhibition by shRNA (mRNA amount); details: HL60, lentiviral shRNA, 72 hours puromycin selection; non-target_shRNA defined as 1; FIG. 18
Procedure: After extraction of total RNA with RNAeasy reagent (QIAGEN), reverse transcription was performed with ReverTra Ace qPCR RT Master Mix (TOYOBO). The primer sequences used for PCR are shown below. Real-time quantitative PCRs were carried out in ABI-7000 Sequencing System with THUNDERBIRD SYBR qPCR Mix, following the manufacturer's instructions (TOYOBO). Each assay was performed in triplicate. 18S rRNA and β-actin were used as endogenous controls.
The amount of mRNA transcribed from the ADAM8 gene in the cells was measured after treatment of an HL60AML cell line with ADAM8_shRNA 1 (SEQ ID NO: 45), ADAM8_shRNA 2 (SEQ ID NO: 46) and ADAM8_shRNA_3 (SEQ ID NO: 47). The target sequences of ADAM8_shRNA_1, ADAM8_shRNA_2 and ADAM8_shRNA_3 are listed as SEQ ID NO: 49, 50 and 51, respectively. Specifically, pLKO.1-puro-CMV-tGFP (Sigma Aldrich Japan) incorporating DNA encoding shRNA was transferred into HEK293 cells together with pMISSION GAG POL (Sigma Aldrich Japan) and pMISSION VSV-G (Sigma Aldrich Japan), to obtain an shRNA-expressing lentivirus. The obtained lentivirus was used to infect HL60, 1 μg/ml puromycin was used for 72 hours of selection, and ADAM8 gene expression in the selected cells was analyzed. The expression level of the ADAM8 gene when using non-target_shRNA that targets a non-ADAM8 gene (SEQ ID NO: 48, target sequence: SEQ ID NO: 52) (indicated as “non-target” in the graph) was defined as 1.

## CNC(=O)[C@H](Cc1c[nH]c2ccccc12)NC(=O)[C@@H](CC(=O)NO)CC(C)C [GM6001, (2R)—N^4-Hydroxy-N^1-[(1S)-2-(1H-indol-3-ylmethyl)-2-(methylamino)-2-oxoethyl]-2-(2-methylpropyl)butanediamide]
CD34+ADAM8+ cells
  effect on cell viability of CD34+ADAM8+ cells: no effect
CD34+ADAM8- cells
  effect on cell viability of CD34+ADAM8- cells: no effect
[1]
  TKI resistance (cell viability) on inhibition of ADAM8 activity: TKI resistance is lowered

## Cc1ccc(NC(=O)c2ccc(CN3CCN(C)CC3)cc2)cc1Nc1nccc(-c2cccnc2)n1 [imatinib]
[2]
  apoptosis induced by imatinib in ADAM8+ CML cells compared to ADAM8- CML cells: suppressed
CML-pre-HPCs
  apoptosis induction in CML-pre-HPCs: not induced to undergo apoptosis
[3]
  imatinib resistance (cell viability) of ADAM8+ CML cells compared to ADAM8- CML cells: greater imatinib resistance

## ADAM8_shRNA_1: shRNA that inhibits expression of the ADAM8 gene, SEQ ID NO: 45, target sequence SEQ ID NO: 49 (CCGGGGACAAGCUAUAUCAGAAACUCUCGAGAGUUUCUGAUAUAGCUUGUCCUUUUU)
[4]
  knockdown of ADAM8 gene expression (mRNA): confirmed to have the ability to knockdown ADAM8

## ADAM8_shRNA_2: shRNA that inhibits expression of the ADAM8 gene, SEQ ID NO: 46, target sequence SEQ ID NO: 50 (CCGGGGGCCUGGAGAUUUGGAAUAGCUCGAGCUAUUCCAAAUCUCCAGGCCCUUUUU)
[4]
  knockdown of ADAM8 gene expression (mRNA): confirmed to have the ability to knockdown ADAM8

## ADAM8_shRNA_3: shRNA that inhibits expression of the ADAM8 gene, SEQ ID NO: 47, target sequence SEQ ID NO: 51 (CCGGGGAAUAGUCAGGACAGGUUCCCUCGAGGGAACCUGUCCUGACUAUUCCUUUUU)
[4]
  knockdown of ADAM8 gene expression (mRNA): confirmed to have the ability to knockdown ADAM8
